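All cell lines were grown in 96-well plates and treated with compound for 48 hours. TGI marks complete inhibition of growth.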
What was measured:
Assay in all cases: NCI anticancer screen, dose series, 48 h
[1] = system: CAKI-1 renal
[2] = system: COLO 205 colon
[3] = system: A498 renal
[4] = system: UACC-62 melanoma
[5] = system: TK-10 renal
[6] = system: HT29 colon
[7] = system: LOX IMVI melanoma
[8] = system: MDA-MB-435
[9] = system: SNB-75 CNS
[10] = system: MOLT-4 leukemia
[11] = system: OVCAR-4 ovarian

| SMILES | TGI [1] | TGI [2] | TGI [3] | TGI [4] | TGI [5] | TGI [6] | TGI [7] | TGI [8] | TGI [9] | TGI [10] | TGI [11] |
| --- | --- | --- | --- | --- | --- | --- | --- | --- | --- | --- | --- |
| COc1ccc(C2c3cc4c(cc3OC(NCCO)C2C)OCO4)cc1 (stereo not drawn) | 77.1 µM | 36.2 µM | 48.8 µM | > 100 µM | 66.1 µM | 43.5 µM | 68.7 µM | 59.7 µM | 69.5 µM | 50 µM | – |
| COc1cccc2c1OCC1Cc3ccccc3OC21 (stereo not drawn) | > 100 µM | 96.1 µM | > 100 µM | > 100 µM | 72.8 µM | > 100 µM | 98.3 µM | 75.3 µM | – | > 100 µM | – |
| O=C1c2cccc(O)c2C(=O)c2c(OC3OC(CO)C(O)C(O)C3O)cccc21 (stereo not drawn) | > 100 µM | 39.2 µM | > 100 µM | > 100 µM | > 100 µM | > 100 µM | > 100 µM | 39.7 µM | 54.6 µM | – | 32.1 µM |
| O=C(O)/C=C\C(=O)Nc1ccc(S(=O)(=O)c2ccc(NC(=O)/C=C\C(=O)O)cc2)cc1 | > 100 µM | > 100 µM | – | > 100 µM | > 100 µM | > 100 µM | > 100 µM | – | > 100 µM | > 100 µM | > 100 µM |
| CCOC(=O)C1=CC(C)(C(=O)OCC)Nc2c(nc(N)[nH]c2=O)N1 (stereo not drawn) | > 10 µM | > 10 µM | > 10 µM | – | > 10 µM | > 10 µM | > 10 µM | > 10 µM | > 10 µM | > 10 µM | > 10 µM |
| CCOC(=O)C1CCC(=O)N1C(=O)c1ccccc1Cl (stereo not drawn) | > 100 µM | – | > 100 µM | 95.5 µM | > 100 µM | > 100 µM | > 100 µM | > 100 µM | > 100 µM | > 100 µM | – |
| COc1ccc(OC)c2sc(N3C(=O)/C(=C/c4cccc([N+](=O)[O-])c4)N=C3c3ccccc3)nc12 | > 100 µM | > 100 µM | > 100 µM | > 100 µM | > 100 µM | > 100 µM | 62.1 µM | 58.3 µM | > 100 µM | 47.4 µM | – |
| COc1cc2[nH]c(-c3ccccc3)cc(=O)c2c(OC)c1OC | – | > 100 µM | > 100 µM | > 100 µM | > 100 µM | > 100 µM | > 100 µM | > 100 µM | > 100 µM | > 100 µM | > 100 µM |
| CC1=NNC(=O)C1C1CC(c2c[nH]c3ccccc23)=NN=C1Cl (stereo not drawn) | > 100 µM | 80.6 µM | > 100 µM | > 100 µM | > 100 µM | > 100 µM | > 100 µM | > 100 µM | > 100 µM | 75.8 µM | – |
| C[C@H]1OC(=O)[C@@H]2N=NN(Cc3ccccc3)[C@H]12 | > 100 µM | > 100 µM | > 100 µM | > 100 µM | > 100 µM | > 100 µM | – | > 100 µM | – | > 100 µM | > 100 µM |
| O=C(NN1C(=O)CSC1c1cccc(F)c1)c1ccncc1 (stereo not drawn) | > 100 µM | > 100 µM | > 100 µM | > 100 µM | > 100 µM | > 100 µM | > 100 µM | – | > 100 µM | > 100 µM | > 100 µM |
| COc1cc(C2c3cc4c(cc3[C@@H](Nc3ccc5c(c3)OCO5)C3COC(=O)[C@H]23)OCO4)cc(OC)c1O (stereo partly drawn) | 1.43 µM | 7.41 µM | 1.84 µM | 5.35 µM | – | 6.07 µM | 3.4 µM | – | – | 0.236 µM | – |
| Nc1ccc(-c2nn3c(COc4ccc(Cl)cc4)nnc3s2)cc1 | > 100 µM | > 100 µM | – | > 100 µM | > 100 µM | > 100 µM | > 100 µM | > 100 µM | > 100 µM | > 100 µM | > 100 µM |
| COc1cc(/C=C2\CCC(C)/C(=C\c3cc(OC)c(OC)c(OC)c3)C2=O)cc(OC)c1OC (stereo not drawn) | 6.71 µM | 5.2 µM | 6.06 µM | 6.89 µM | 14 µM | 10.9 µM | > 100 µM | > 100 µM | 50.8 µM | – | – |
| COC(=O)[C@H](Cc1ccccc1)NC(=O)N(CCC#N)CCN(C(=O)N[C@@H](Cc1ccccc1)C(=O)OC)c1ccccc1 | 41 µM | 56.2 µM | 39.8 µM | 13.6 µM | 41.6 µM | – | 41.3 µM | 39.2 µM | 45.3 µM | 41.3 µM | 69.2 µM |
| CSc1nc2c(ncn2C2OC(CO)C(O)C(O)C2O)c(=O)[nH]1 (stereo not drawn) | – | > 100 µM | > 100 µM | > 100 µM | – | > 100 µM | > 100 µM | – | > 100 µM | > 100 µM | > 100 µM |
| C/C(=N\Nc1nc2ccccc2s1)c1ccc2ccccc2n1 | > 100 µM | > 100 µM | > 100 µM | > 100 µM | > 100 µM | > 100 µM | > 100 µM | > 100 µM | 97.2 µM | – | > 100 µM |
| CC1(C)N=C2C(=O)c3c([nH]c4ccccc34)[C@]3(C)CCC1CC23 (stereo partly drawn) | > 6.25 µM | > 6.25 µM | > 6.25 µM | – | > 6.25 µM | > 6.25 µM | > 6.25 µM | > 6.25 µM | > 6.25 µM | > 6.25 µM | > 6.25 µM |
| CCNc1ncnc2sc(SCc3ccccc3)nc12 | > 100 µM | > 100 µM | > 100 µM | – | > 100 µM | > 100 µM | > 100 µM | > 100 µM | > 100 µM | > 100 µM | > 100 µM |
| CC1(C)CC(C#Cc2ccccc2)CC(C)(C)N1O | 61.3 µM | 49.4 µM | – | 42.5 µM | 40.5 µM | 29.4 µM | 29.9 µM | 44.6 µM | 54.1 µM | > 100 µM | > 100 µM |
| CC1(C)OC2COC3([C@@H]4OC(C)(C)O[C@@H]4CO)OC(C)(C)OC3C2O1 (stereo partly drawn) | > 100 µM | > 100 µM | > 100 µM | > 100 µM | – | – | > 100 µM | > 100 µM | > 100 µM | – | > 100 µM |

Source: PubChem BioAssay (NCI)
